From patent US11254688B2 (Boehringer Ingelheim International GmbH, priority 2018, dated 2022)

target: T1, hGOAT (Homo sapiens, UniProt Q96T53); test: Determination of hGOAT activity in HEK293 cells after incubation with test compound (acyl-ghrelin ELISA); assay type: cell-based; conditions: HEK293 cells stably transfected with preproghrelin and human GOAT; octanoate-BSA 100 μM; 5 hours incubation; acyl-ghrelin in medium by ELISA; 8 compound concentrations
T1 construct: expressed in transfected cells; host or cells: HEK293 (Hek293 hGOAT/PPGhrl Clone #1B8)
T1 sequence (Q96T53 1-435): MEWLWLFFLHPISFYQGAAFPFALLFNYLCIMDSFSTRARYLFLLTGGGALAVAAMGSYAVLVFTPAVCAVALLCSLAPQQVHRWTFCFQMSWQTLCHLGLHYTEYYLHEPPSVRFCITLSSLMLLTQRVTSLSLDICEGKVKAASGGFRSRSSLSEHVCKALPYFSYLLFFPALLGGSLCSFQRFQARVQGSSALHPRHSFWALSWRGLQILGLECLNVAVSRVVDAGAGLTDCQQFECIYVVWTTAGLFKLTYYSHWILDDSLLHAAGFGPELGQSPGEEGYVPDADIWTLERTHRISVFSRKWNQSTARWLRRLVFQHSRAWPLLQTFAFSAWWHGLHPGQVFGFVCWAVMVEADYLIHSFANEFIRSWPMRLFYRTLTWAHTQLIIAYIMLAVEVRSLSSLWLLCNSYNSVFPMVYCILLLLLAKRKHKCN
Protocol: Determination of hGOAT Activity in HEK293 Cells after Incubation with Test Compound
HEK293 cells stably transfected with two expression vectors, one coding for preproghrelin cDNA and a second for the expression of human GOATcDNA are used as a cellular model. After feeding the cells with octanoic acid for 5 hours, acyl-ghrelin is measured in cell culture medium by an ELISA procedure.
Cellline: Hek293 hGOAT/PPGhrl Clone #1B8Sodium octanoate, Sigma, Cat.-No. C5038
BD Poly-D-Lysin 384-well Plates, black-clear polystyrene BD Bioscience Cat.-No. […] ELISA human acylated Ghrelin Kit purchased from Bertin Pharman (detailed composition of buffers e.g. wash-puffer, ELISA buffer not known)
Cells are plated with a density of 5000 cells/well in 384-well poly-D-lysin plates and incubated for 1 day at 37° C., 5% CO2 in DMEM medium, 10% FCS, 1×NEAA, Puromycin (0.5 μg/ml) and G418 (1 mg/ml). Then the medium is changed to a identical medium without FCS and containing Octanoate-BSA (final concentration 100 μM each) and compound in DMSO (final DMSO concentration 0,3%). After incubation for 5 hours acylghrelin in the medium is measured by ELISA.
The medium sample is diluted 1:25 in Elisa buffer, a 25 μl aliquot is transferred to a 384-well ELISA plate previously washed 4 times with 100 μL wash buffer, and 25 μl tracer-solution is added. After incubation overnight (˜20 h) at 4° C. temperature the plate is washed 4 times with 100 μl wash-buffer per well. Finally 50 μl Ellman's reagent is added to each well and the plate is incubated in the dark for 20 minutes. The absorbance is measured at 405 nm in an Envision multilabel reader and the amount of acylated ghrelin is calculated according to a acylated ghrelin standard curve provided in the same plate.
The analysis of the data is performed by calculation of the percentage of acyl-ghrelin produced in the presence of test compound compared to the amount of acyl-ghrelin produced in the vehicle control samples. An inhibitor of the GOAT enzyme will give values between 100% CTL (no inhibition) and 0% CTL (complete inhibition).
IC50 values are calculated with Assay Explorer or other suited software based on curve fitting of results of 8 different compound concentrations.

| SMILES | IC50 |
| --- | --- |
| Cc1nc2nonc2c(N)c1Cc1ccc(C(C)(C)C(=O)O)nc1 [Compound 19.4, 2-[5-({7-Amino-5-methyl-[1,2,5]oxadiazolo[3,4-b]pyridin-6-yl}methyl)pyridin-2-yl]-2-methylpropanoic Acid] | 0.534 nM |
| Cc1nc2nonc2c(N)c1Cc1ccc(C(=O)NC(C)CO)cc1 (centres unmarked) [Compound 14.10, 4-({7-amino-5-methyl-[1,2,5]oxadiazolo[3,4-b]pyridin-6-yl}methyl)-N-(1-hydroxypropan-2-yl)benzamide] | 4.7 nM |
| Cc1nc2nonc2c(N)c1Cc1ccnc(C#N)c1 [Compound 4.39, 4-({7-Amino-5-methyl-[1,2,5]oxadiazolo[3,4-b]pyridin-6-yl}methyl)pyridine-2-carbonitrile] | 9.39 nM |
| COc1cccc(Cc2c(C)nc3nonc3c2N)c1 [Compound 4.51, 6-[(3-Methoxyphenyl)methyl]-5-methyl-[1,2,5]oxadiazolo[3,4-b]pyridin-7-amine] | 0.673 nM |
| Cc1nc2nonc2c(N)c1Cc1ccc(C(=O)NC(CO)C2CC2)cc1 (centres unmarked) [Compound 14.16, 4-({7-Amino-5-methyl-[1,2,5]oxadiazolo[3,4-b]pyridin-6-yl}methyl)-N-(1-cyclopropyl-2-hydroxyethyl)benzamide] | 3.73 nM |
| Nc1c(Cc2ccc(C(F)(F)F)cc2)c(C(F)F)nc2nonc12 [Compound 24.5, 5-(Difluoromethyl)-6-{[4-(trifluoromethyl)phenyl]methyl}-[1,2,5]oxadiazolo[3,4-b]pyridin-7-amine] | 0.289 nM |
| Nc1c(Cc2ccc(C(F)(F)F)cc2)c(CO)nc2nonc12 [Compound 24.2, (7-Amino-6-{[4-(trifluoromethyl)phenyl]methyl}-[1,2,5]oxadiazolo[3,4-b]pyridin-5-yl)methanol] | 5.73 nM |
| Cc1nc2nonc2c(N)c1Cc1ccc(OC(F)(F)F)cc1F [Compound 4.46, 6-(2-Fluoro-4-trifluoromethoxy-benzyl)-5-methyl-[1,2,5]oxadiazolo[3,4-b]pyridin-7-ylamine] | 0.052 nM |
| Cc1nc2nonc2c(N)c1Cc1ccc(-c2ccc(C#N)s2)nc1 [Compound 12.5, 5-[5-(7-Amino-5-methyl-[1,2,5]oxadiazolo[3,4-b]pyridin-6-ylmethyl)-pyridin-2-yl]-thiophene-2-carbonitrile] | 3.66 nM |
| Cc1nc2nonc2c(N)c1Cc1ccc(C(F)(F)F)c(C(=O)N(C)C)c1 [Compound 15.6, 5-({7-Amino-5-methyl-[1,2,5]oxadiazolo[3,4-b]pyridin-6-yl}methyl)-N,N-dimethyl-2-(trifluoromethyl)benzamide] | 1.26 nM |
| Cc1nc2nonc2c(N)c1Cc1ccc(C2(C#N)CCOCC2)nc1 [Compound 4.27, 4-[5-({7-Amino-5-methyl-[1,2,5]oxadiazolo[3,4-b]pyridin-6-yl}methyl)pyridin-2-yl]oxane-4-carbonitrile] | 1.65 nM |
| COC(=O)c1ccc(Cc2c(C)nc3nonc3c2N)cc1 [Compound 2.10, Methyl 4-({7-amino-5-methyl-[1,2,5]oxadiazolo[3,4-b]pyridin-6-yl}methyl)benzoate] | 0.132 nM |
| Cc1nc2nonc2c(N)c1Cc1ccc(-c2ccsc2C#N)nc1 [Compound 12.3, 3-[5-(7-Amino-5-methyl-[1,2,5]oxadiazolo[3,4-b]pyridin-6-ylmethyl)-pyridin-2-yl]-thiophene-2-carbonitrile] | 0.509 nM |
| Cc1nc2nonc2c(N)c1Cc1ccc(-c2cncn2C)nc1 [Compound 12.8, 5-Methyl-6-{[6-(1-methyl-1H-imidazol-5-yl)pyridin-3-yl]methyl}-[1,2,5]oxadiazolo[3,4-b]pyridin-7-amine] | 0.531 nM |
| Cc1nc2nonc2c(N)c1Cc1cccc(S(=O)(=O)C(F)(F)F)c1 [Compound 4.42, 5-Methyl-6-[(3-trifluoromethanesulfonylphenyl)methyl]-[1,2,5]oxadiazolo[3,4-b]pyridin-7-amine] | 0.377 nM |
| Cc1nc2nonc2c(N)c1Cc1ccc(F)c(Br)c1 [Compound 4.44, 6-(3-Bromo-4-fluoro-benzyl)-5-methyl-[1,2,5]oxadiazolo[3,4-b]pyridin-7-ylamine] | 0.573 nM |
| Cc1nc2nonc2c(N)c1Cc1ccc(F)nc1 [Compound 4.4, 6-[(6-Fluoropyridin-3-yl)methyl]-5-methyl-[1,2,5]oxadiazolo[3,4-b]pyridin-7-amine] | 4.06 nM |

The remaining lines, values ahead:

| IC50 | SMILES |
| --- | --- |
| 0.078 nM | COc1cc(Cc2c(Cl)nc3nonc3c2N)ccc1Br [Compound 23.6, 6-[(4-Bromo-3-methoxyphenyl)methyl]-5-chloro-[1,2,5]oxadiazolo[3,4-b]pyridin-7-amine] |
| 1.31 nM | Cc1nc2nonc2c(N)c1Cc1ccc(-c2c(C)noc2C)n2cnnc12 [Compound 12.11, 6-{[5-(3,5-Dimethyl-1,2-oxazol-4-yl)-[1,2,4]triazolo[4,3-a]pyridin-8-yl]methyl}-5-methyl-[1,2,5]oxadiazolo[3,4-b]pyridin-7-amine] |
| 0.887 nM | Cc1nc2nonc2c(N)c1Cc1ccc(CC#N)cc1 [Compound 2.15, 2-[4-({7-Amino-5-methyl-[1,2,5]oxadiazolo[3,4-b]pyridin-6-yl}methyl)phenyl]acetonitrile] |
| 0.555 nM | Cc1nc2nonc2c(N)c1Cc1ccc(C(C)(C)C(N)=O)nc1 [Compound 19.3, 2-[5-({7-Amino-5-methyl-[1,2,5]oxadiazolo[3,4-b]pyridin-6-yl}methyl)pyridin-2-yl]-2-methylpropanamide] |
| 0.978 nM | Cc1nc2nonc2c(N)c1Cc1ccc(OC2CCOCC2)nc1 [Compound 21.12, 5-Methyl-6-[6-(tetrahydro-pyran-4-yloxy)-pyridin-3-ylmethyl]-[1,2,5]oxadiazolo[3,4-b]pyridin-7-ylamine] |
| 1.35 nM | Cc1nc2nonc2c(N)c1Cc1cnc(Cl)c(C(F)(F)F)c1 [Compound 25.4, 6-{[6-chloro-5-(trifluoromethyl)pyridin-3-yl]methyl}-5-methyl-[1,2,5]oxadiazolo[3,4-b]pyridin-7-amine] |
| 9.47 nM | Nc1c(Cc2ccc(C(F)(F)F)cc2)c(C(F)(F)F)nc2nonc12 [Compound 9.1, 5-(Trifluoromethyl)-6-{[4-(trifluoromethyl)phenyl]methyl}-[1,2,5]oxadiazolo[3,4-b]pyridin-7-amine] |
| 1.4 nM | Cc1nc2nonc2c(N)c1Cc1cccc(Br)c1 [Compound 2.6, 6-[(3-Bromophenyl)methyl]-5-methyl-[1,2,5]oxadiazolo[3,4-b]pyridin-7-amine] |
| 0.246 nM | Cc1nc2nonc2c(N)c1Cc1ccc(Cl)c(Cl)c1 [Compound 4.1, 6-[(3,4-Dichlorophenyl)methyl]-5-methyl-[1,2,5]oxadiazolo[3,4-b]pyridin-7-amine] |
| 1.92 nM | Cc1nc2nonc2c(N)c1Cc1ccc(OCC2(C)COC2)nc1 [Compound 21.11, 5-Methyl-6-({6-[(3-methyloxetan-3-yl)methoxy]pyridin-3-yl}methyl)-[1,2,5]oxadiazolo[3,4-b]pyridin-7-amine] |
| 1.58 nM | COc1ccc(Cc2c(C)nc3nonc3c2N)cn1 [Compound 4.3, 6-[(6-Methoxypyridin-3-yl)methyl]-5-methyl-[1,2,5]oxadiazolo[3,4-b]pyridin-7-amine] |
| 2.51 nM | Cc1nc2nonc2c(N)c1Cc1ccc(C#N)c(C#N)c1 [Compound 4.59, 4-({7-Amino-5-methyl-[1,2,5]oxadiazolo[3,4-b]pyridin-6-yl}methyl)benzene-1,2-dicarbonitrile] |
